Here are results for eight compounds from US10736883B2, “Triazole furan compounds as agonists of the APJ receptor” (AMGEN INC., priority 2016, dated 2020).

Assay [1] has as its system MI-induced heart failure rats. Briefly: Cardiovascular effects of Example 56.0 and captopril/losartan on MI-induced heart failure rats. It is filed as in vivo, rat. The method, then: Cardiovascular Effects of Example 56.0 and Captopril/Losartan on MI-Induced Heart Failure Rats
Male Lewis rats at 2-3 months of age were used for the study. MI was induced by ligation of the LAD. Echocardiography (Echo) was performed at one-week post-MI on rats for verification of infarct size and animal enrollment Animals with ejection fractions more than 40% or no visible infarct in myocardium were excluded from the study. All eligible MI rats were randomly divided into 3 groups: 1) those treated with vehicle; 2) those treated with losartan (0.5 g/L in drink water); and 3) those treated with captopril (0.5 g/L in drink water). Treatments were initiated approximately five weeks post-MI and animals were continuously treated with losartan and captopril in drinking water up to 15 days prior to being assigned into each subgroup. These subgroup groups included the following: 1) cohort treated with vehicle; 2) cohort treated with Example 56.0 at various doses; 3) cohort treated only with losartan; 4) cohort treated with losartan and Example 56.0 at various doses; 5) cohort treated only with captopril; and 6) cohort treated with captopril and Example 56.0 at various doses. A Millar PV catheter was inserted into the right common carotid artery and then advanced to the left ventricle (LV) for cardiac hemodynamic assessment and the peripheral arterial pressure was also monitored by a pressure transducer via a femoral artery access in all rats. Following hemodynamic stabilization, baseline steady-state data was acquired Animals in any Example 56 treated group received intravenous infusion of Example 56.0 in a dose-escalated fashion during cardiac hemodynamic assessment. Blood was drawn for actual PK exposure to derive a PK/PD profile.

The subject of another assay is heart failure rat model. Briefly: In vivo cardiac contractility in heart failure (MI) rat model. To be noted: heart failure rats (LAD ligation), acute administration for 30 min. The method, then: Evidence for Improvement in Cardiac Contractility In Vivo in Heart Failure Rat Model
Based on the ex vivo findings in isolated heart assay, APJ agonists were dosed in vivo to investigate the translation of cardiac contractility in in vivo settings. Male Lewis rats (Charles River, USA) at 2-3 months of age were used for the study. Heart failure was induced by permanent ligation of the left descending coronary artery which results in injury to the heart with an ejection fraction of <35%. APJ agonists were administered dose dependently acutely for a period of 30 min. Administration of example compounds lead to an increase in cardiac contractility as measured by dP/dtmax (derivative of left ventricular pressure) (Table 27).

The test system of the next assay is isolated rat heart. Briefly: Isolated rat heart assay with APJ agonist in the presence or absence of AT1R blocker losartan. An excerpt:
Evidence for Blockade of AT1R Signaling Enhances the APJ Receptor Signaling Using Ex-Vivo (Isolated Rat Heart Assay) and In Vivo (Myocardial Infraction (MI)-Induced Heart Failure Model)
Naive Sprague Dawley® SD rats were anaesthetized and hearts were excised followed by cannulation in the Langendorff apparatus via aorta. The heart was perfused retrograde with modified oxygenated Krebs-Henseleit buffer. The pressure of the solution causes the aortic valve to shut and the perfusate was then forced into the ostium and the coronary vessels. This allowed the heart to beat for several hours. A balloon was inserted into the left ventricle to measure dp/dtmax as an index of cardiac contractility. The APJ agonist (Example 56.0) was perfused in the presence or absence of AT1R blocker losartan.

Assay [2] has as its target T1, APJ receptor (Homo sapiens (Human), UniProt P35414). Briefly: [35S]GTPγS binding assay on membranes from CHO cells stably expressing human APJ receptor. It is filed as biochemical. The note with it: membranes of CHO cells stably expressing human APJ receptor, means of several independent experiments, read-out: Activity hAPJ SPA EC50 IP. The essentials:
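Membranes from CHO cells stably expressing human APJ were incubated with 0.2 nM [35S]GTPγS and ligands for 90 min at RT in 20 mM HEPES pH 7.5, 5 mM MgCl2, 200 mM NaCl, 3 μM GDP, 0.1% BSA with WGA PS beads. Nonspecific binding was set with 100 μM GTPγS. EC50 came from non-linear regression.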
On the technique in general: GTPγS is a poorly hydrolysed GTP analogue; its binding reports G protein activation.

Assay [3] deals with isolated perfused rat hearts. The assay is described as follows: Ex vivo isolated perfused rat heart (Langendorff) assay, load independent inotropic/lusitropic effects. The note with it: percent change over vehicle; for Isolated Heart Assay dP/dtmax (%): contractility; for Isolated Heart Assay dP/dtmin (%): relaxation. From the text:
Evidence for Load Independent Inotropic Effects with APJ Agonists Using Ex Vivo Assay (Isolated Perfused Rat Hearts)
Naive Sprague Dawley® SD rats (Harlan laboratories (Livermore, Calif. USA)) were anaesthetized and hearts were excised followed by cannulation in the Langendorff apparatus (Harvard apparatus, Holliston, Mass. USA) via aorta. The heart was perfused retrograde with modified oxygenated Krebs-Henseleit buffer (Skrzypiec-Spring M et al., (2007) J. Pharmacol Toxicol Methods 55: 113-126). The pressure of the solution causes the aortic valve to shut and the perfusate is then forced into the ostium and the coronary vessels. This allows the heart to beat for several hours. A balloon was inserted into the left ventricle (LV) to measure dP/dtmax (derivative of left ventricular pressure) as an index of cardiac contractility. The APJ agonist was perfused constantly in a dose dependent manner into the heart to examine cardiac contractility.
Example 210.0 was infused at different concentrations and load independent contractility was measured by index of LV dP/dtmax and the results are expressed as a percent change over vehicle. […] Example 210.0 was infused at different concentrations and load independent lusitropic effect (relaxation) was measured by index of LV dP/dtmin where results are expressed as percent change over vehicle. […] Example 51.0 was infused at different concentrations and load independent contractility was measured by index of LV dP/dtmax and the results are expressed as a percent change over vehicle. […] Example 51.0 was infused at different concentrations and load independent lusitropic effect (relaxation) was measured by index of LV dP/dtmin where results are expressed as percent change over vehicle.

In assay [4] the test system is ex vivo naive Sprague Dawley rat hearts. Briefly: Langendorff isolated perfused rat heart (ex vivo). To be noted: Langendorff apparatus; for left ventricular dP/dtmax (cardiac contractility) / left ventricular dP/dtmin (cardiac relaxation): isolated perfused rat hearts, compared with vehicle / control (DMSO). An excerpt:
FIG. 1A is a graph of left ventricular dP/dtmax as a function of concentration of Example 210.0 compared with vehicle in ex vivo naive Sprague Dawley rat hearts obtained using the Langendorff apparatus.
FIG. 1B is a graph of left ventricular dP/dtmin as a function of concentration of Example 210.0 compared with vehicle in ex vivo naive Sprague Dawley rat hearts obtained using the Langendorff apparatus.
FIG. 2A is a graph of left ventricular dP/dtmax as a function of concentration of Example 51.0 compared with vehicle in ex vivo naive Sprague Dawley rat hearts obtained using the Langendorff apparatus.
FIG. 2B is a graph of left ventricular dP/dtmin as a function of concentration of Example 51.0 compared with vehicle in ex vivo naive Sprague Dawley rat hearts obtained using the Langendorff apparatus.

For assay [5], the target named is T1, APJ receptor. To be noted: apelin-36, apelin-17 and apelin-13 compared; cited from earlier work.
The mark [6] stands for this setting: Example 56.0 alone over vehicle, intravenous infusion, MI rats.
Where [7] appears, read: losartan alone compared to control (DMSO).

A word on the EC50: it is the midpoint of the concentration-response curve.

T1 sequence (P35414 whole entry): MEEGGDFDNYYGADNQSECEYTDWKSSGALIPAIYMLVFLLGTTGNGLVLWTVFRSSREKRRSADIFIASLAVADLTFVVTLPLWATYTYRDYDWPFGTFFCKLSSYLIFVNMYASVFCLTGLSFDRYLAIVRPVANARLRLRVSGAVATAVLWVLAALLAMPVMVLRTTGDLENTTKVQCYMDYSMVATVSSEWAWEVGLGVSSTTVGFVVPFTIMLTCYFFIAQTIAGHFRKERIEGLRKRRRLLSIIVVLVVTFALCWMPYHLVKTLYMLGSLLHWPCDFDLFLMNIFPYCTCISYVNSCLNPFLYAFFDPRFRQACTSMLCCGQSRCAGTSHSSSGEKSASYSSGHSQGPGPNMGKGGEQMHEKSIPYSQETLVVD

As to `C[C@H](CS)C(=O)N1CCC[C@H]1C(=O)O` [Captopril, captopril, reference compound], the “contractility or ejection fraction” value in assay [1] (captopril alone, acute settings, heart failure rats in vivo) was “does not show a marked improvement”.
For `COc1cccc(OC)c1-n1c(NS(=O)(=O)[C@@H](C)[C@H](C)c2ncc(F)cn2)nnc1-c1ccc(C)o1` [Example 56.0, (2S,3R)—N-(4-(2,6-dimethoxyphenyl)-5-(5-methyl-2-furanyl)-4H-1,2,4-triazol-3-yl)-3-(5-fluoro-2-pyrimidinyl)-2-butanesulfonamide], in the assay with heart failure rat model, the “MI Rat Model dP/dtmax (%)” value is reported as 30%. Further, the heart rate result in assay [1] (Example 56.0 alone or in combination with an ARB or ACE inhibitor, MI rats) was “did not significantly change”. In addition, in assay [1] (setting [6]), the dp/dtmax result was “increase” and the ejection fraction entry is recorded as “increase”. The contractile function result in assay [1] (plus losartan or captopril, over Example 56.0 therapy alone, MI rats) is listed as “further augmented”. Moreover, the inotropic effects entry with isolated rat heart (APJ agonist alone) is “dose-dependent increase”. Also, in the assay on isolated rat heart (co-infusion of losartan), the “Emax on co-infusion of AT1R blocker losartan” value is “increased” and the “increase of potency on co-infusion of AT1R blocker losartan” value is on record as 5 fold. For the same compound, the concentration giving a half-maximal response (EC50) at APJ receptor [2] was found to be 0.071 nM. Moreover, in assay [3], the “Isolated Heart Assay dP/dtmax (%)” value amounted to 23.0% and the “Isolated Heart Assay dP/dtmin (%)” value is 24.9%.
In the case of `COc1cccc(OC)c1-n1c(NS(=O)(=O)[C@@H](C)[C@H](O)c2ncc(F)cn2)nnc1-c1ccc(C)o1` [Example 115.0, (1R,2S)-N-(4-(2,6-dimethoxyphenyl)-5-(5-methylfuran-2-yl)-4H-1,2,4-triazol-3-yl)-1-(5-fluoropyrimidin-2-yl)-1-hydroxypropane-2-sulfonamide], the “MI Rat Model dP/dtmax (%)” value with heart failure rat model is 30%. On APJ receptor [2], the EC50 came to 0.2 nM. In assay [3], the “Isolated Heart Assay dP/dtmax (%)” value worked out at 32.6% and the “Isolated Heart Assay dP/dtmin (%)” value was found to be 34.7%.
Consider `COc1cccc(OC)c1-n1c(NS(=O)(=O)CCc2ccc(F)cc2C#N)nnc1-c1ccco1` [Example 210.0, 2-(2-Cyano-4-fluorophenyl)-N-(4-(2,6-dimethoxyphenyl)-5-(2-furanyl)-4H-1,2,4-triazol-3-yl)ethanesulfonamide], for which the “MI Rat Model dP/dtmax (%)” value in the assay with heart failure rat model was 95.6%. In addition, the EC50 on APJ receptor [2] turned out to be 3.2 nM. Moreover, in assay [3], the “Isolated Heart Assay dP/dtmax (%)” value came out at 25.9% and the “Isolated Heart Assay dP/dtmin (%)” value was determined as 34.0%. In assay [4], the “left ventricular dP/dtmax (cardiac contractility)” value is on record as “increases load independent cardiac contractility” and the “left ventricular dP/dtmin (cardiac relaxation)” value is “increases load independent cardiac relaxation”.
Consider `COc1cccc(OC)c1-n1c(NS(=O)(=O)[C@@H](C)[C@H](OC)c2ncc(C)cn2)nnc1-c1ccc(C)o1` [Example 261.0], for which the “MI Rat Model dP/dtmax (%)” value in the assay on heart failure rat model was 30%. Further, the EC50 on APJ receptor [2] was 0.13 nM. Moreover, in assay [3], the “Isolated Heart Assay dP/dtmax (%)” value is recorded as 34.5% and the “Isolated Heart Assay dP/dtmin (%)” value is recorded as 53.8%.
With `CCCCc1nc(Cl)c(CO)n1Cc1ccc(-c2ccccc2-c2nn[nH]n2)cc1` [losartan], in the assay with isolated rat heart (setting [7]), the “cardiac contraction (dp/dtmax)” value is “did not have any impact”, the “cardiac relaxation (dp/dtmin)” value is reported as “did not have any impact”, the “developed pressure (DevP)” value is “did not have any impact” and the “systolic pressure (Sys)” value is recorded as “did not have any impact”. Moreover, in assay [4] (compared with control (DMSO)), the “left ventricular (LV) developed pressure (DevP)” value is given as “no impact on developed pressure” and the “left ventricular (LV) systolic pressure (Sys)” value is “no impact on systolic pressure”. For the same compound, in assay [4], the “left ventricular dP/dtmax (cardiac contractility)” value is given as “no impact on cardiac contraction” and the “left ventricular dP/dtmin (cardiac relaxation)” value is listed as “no impact on cardiac relaxation”.
Turning to “Apelin-36 (LVQPRGSRNGPGPWQGGRRKFRRQRPRLSHKGPMPF; Apelin-36; UniProt Q9ULZ1 42-77, looked up)”, the “in vitro activity (relative potency)” value with APJ receptor [5] is “approximately equipotent”.
In the case of apelin-17, on APJ receptor [5], the “in vitro activity (relative potency)” value is reported as “approximately equipotent”.
